Columns and labels:
[1] = target: T1, SARS-CoV-2^A358V/F360N MD (Severe acute respiratory syndrome coronavirus 2, UniProt P0DTD1, A1176V/F1178N); assay type: biochemical
[2] = target: T2, SARS-CoV-2^F360N/D361S MD (Severe acute respiratory syndrome coronavirus 2, UniProt P0DTD1, D1179S/F1178N); assay type: biochemical
[3] = target: T1, SARS-CoV-2^A358V/F360N MD; assay type: binding
[4] = target: T2, SARS-CoV-2^F360N/D361S MD; assay type: binding

`N#C[C@@]1(c2ccc3c(N)ncnn23)O[C@H](CO)[C@@H](O)[C@H]1O` [GS-441524] was tested, and the “Initial substrate decay rate k” value [1] was 0.127 ± 0.01 µM/min, the “decrease of the k value vs free form” value [1] was 33.2% and the “Initial substrate decay rate k” value [2] was 0.160 ± 0.007 µM/min. For the same compound, the “decrease of the k value vs free form” value [2] was 24.9%, the “exchange regime on NMR time scale” value [3] was “fast exchange regime” and the “exchange regime on NMR time scale” value [4] was “fast exchange regime”.
